System: HMLER breast cancer populations
Test: Microarray gene expression / Gene Set Enrichment Analysis of HMLER cells after drug treatment versus DMSO control
Assay type: cell-based
Details: relative to DMSO control, GSEA; for collective expression level of the genes in Table 1 (EMT-associated genes) and subsets thereof upon treatment: FIGS. 2 and 5; for collective expression level of the genes in Table 2 (non-EMT-associated genes) and subsets thereof upon treatment: FIGS. 3 and 4
Description: The collective expression levels of the genes in Tables 1 and 2 after paclitaxel treatment were then determined. For these analyses, which are shown in FIGS. 2 and 3, collections of gene subsets of various sizes were chosen.
Next, identical analyses as those described above were performed in the context of treatment with a different anti-cancer agent—salinomycin—that was previously identified as specifically killing invasive cancer stem cells. The opposite expression change (relative to paclitaxel) was observed upon treatment with salinomycin. […] As a consequence, measurement of the expression of the genes in Table 1 (or any appropriate subsets thereof identified according to the methods disclosed herein) would serve to identify tumors that would be responsive to a CSS agent (e.g., salinomycin treatment) when applied as a single agent.

| SMILES | collective expression level of the genes in Table 1 (EMT-associated genes) and subsets thereof upon treatment | collective expression level of the genes in Table 2 (non-EMT-associated genes) and subsets thereof upon treatment |
| --- | --- | --- |
| CC[C@@H](C(=O)[C@@H](C)[C@@H](O)[C@H](C)[C@@H]1O[C@@H]([C@@H](CC)C(=O)O)CC[C@@H]1C)[C@H]1O[C@]2(C=C[C@@H](O)[C@]3(CC[C@@](C)([C@H]4CC[C@](O)(CC)[C@H](C)O4)O3)O2)[C@H](C)C[C@@H]1C [salinomycin] | under-expressed | over-expressed |
| CC(=O)O[C@H]1C(=O)[C@@]2(C)[C@H]([C@H](OC(=O)c3ccccc3)[C@]3(O)C[C@H](OC(=O)[C@H](O)[C@@H](NC(=O)c4ccccc4)c4ccccc4)C(C)=C1C3(C)C)[C@]1(OC(C)=O)CO[C@@H]1C[C@@H]2O [paclitaxel] | over-expressed | under-expressed |

— patent US20130260376A1, “Prediction of and Monitoring Cancer Therapy Response Based on Gene Expression Profiling” (WHITEHEAD INSTITUTE FOR BIOMEDICAL RESEARCH, priority 2010, published 2013)
